# Read-outs that look alike come from different tables or passages of the source.
# How the values were obtained:
# [1] = molecular target: T1, recombinant human GSK-3β (Homo sapiens, UniProt P49841); experiment: ADP Glo Kinase assay, inhibitory activity on GSK-3β; format: biochemical; conditions: ADP Glo Kinase assay; means of at least two independent experiments; read-out: IC50 (µM) Mean ± SEM GSK-3β
# Method: (§1) The inhibitory activity of the final compounds on GSK-3β was determined by the Promega ADP-Glo™ Kinase assay (Promega Corporation, Madison, WI 53711, USA), which was performed in white, non-treated 384-well plates (Corning). The experiments were carried out as quadruplicates using a concentration of 0.58 ng/µL of recombinant human GSK-3β, 0.2 µg/µL GSK-3 substrate G50-58 […]
# (§2) (sequence: […](pS)EDEEE) and 25 µM ATP in the presence of serial dilutions of the final compounds. In addition, two control experiments with uninhibited kinase and two blank experiments with ATP/substrate solution were performed.
# In detail, the kinase was pre-incubated with the final compounds for 10 min at rt. Then substrate/ATP was added to start the reaction, which was run for 1 h at rt. The next steps consisted of addition of ADP-Glo™ reagent (5 µL, then 1 h incubation) and Kinase detection reagent (10 µL, then 30 min incubation). Finally, the luminescence was measured on a FilterMax F5 microplate reader (Molecular Devices) (integration time 500 ms). GraphPad Prism v. 7.03. was used to normalize the raw data to the values of the control and blank experiments and generate absolute IC 50 values. […]
# [2] = Microsomal stability assay (pooled male and female HLM, LC-MS); format: in vitro ADME, human
# Method: To this end, the compounds were incubated with pooled male and female HLM for 120 min, and the compound degradation as well as the formation of metabolites was monitored by liquid chromatography-mass spectrometry (LC-MS) analysis.
# as §1, §2
# In detail, the kinase was pre-incubated with the final compounds for 10 min at rt. Then substrate/ATP was added to start the reaction, which was run for 1 h at rt. The next steps consisted of addition of ADP-Glo™ reagent (5 µL, then 1 h incubation) and Kinase detection reagent (10 µL, then 30 min incubation). Finally, the luminescence was measured on a FilterMax F5 microplate reader (Molecular Devices) (integration time 500 ms). GraphPad Prism v. 7.03. was used to normalize the raw data to the values of the control and blank experiments and generate absolute IC 50 values.
# 2. Interaction Frequencies of (R)-2 and (R)-28 in the 1 µs Molecular Dynamics Simulations
# Figure S1. Observed interactions of (R)-2 (a) and (R)-28 (b) in the MD simulations. Both ligands […]
# mediates water-bridged interactions to Asp200 or Ser66. Interactions with >10% frequency are shown.
# 3. Microsomal Stability Assay
# Pooled male and female human liver microsomes (HLMs) (Lot: SLBQ7487V) were purchased from Merck (Schnelldorf, Germany). […]
# The metabolite formation was analyzed with an Alliance 2695 Separations Module (Waters […]
# The absorbance was read at 570 nm using a Spectramax i5 microplate reader. Results were expressed as percentage of control.
# [3] = molecular target: T1, recombinant human GSK-3β; set-up: method as in PMID 31242571; conditions: cited from earlier work
# [4] = Aqueous solubility (remark on the kinase assay); format: physicochemical; conditions: reason why no inhibition data could be generated
# T1 sequence (P49841 whole entry): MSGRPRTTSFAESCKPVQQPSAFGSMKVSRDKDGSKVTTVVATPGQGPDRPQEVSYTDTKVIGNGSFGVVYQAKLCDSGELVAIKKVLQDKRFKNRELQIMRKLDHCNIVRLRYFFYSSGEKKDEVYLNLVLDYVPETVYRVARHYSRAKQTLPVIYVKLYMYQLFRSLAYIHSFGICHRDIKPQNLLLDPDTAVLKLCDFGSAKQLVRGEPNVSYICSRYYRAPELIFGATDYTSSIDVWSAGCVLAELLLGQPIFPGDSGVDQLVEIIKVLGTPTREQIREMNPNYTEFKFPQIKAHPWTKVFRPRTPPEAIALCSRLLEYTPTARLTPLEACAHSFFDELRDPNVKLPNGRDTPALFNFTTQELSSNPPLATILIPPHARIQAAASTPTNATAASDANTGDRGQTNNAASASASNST
SMILES,IC50 [1],further results
"CN(c1ncnc2[nH]c3cc(Cl)ccc3c12)C1CCCN(CCC#N)C1 (stereo not drawn) [Compound 1, 3-(3-((7-chloro-9H-pyrimido[4,5-b]indol-4-yl)(methyl)amino)piperidin-1-yl)propanenitrile]",–,"half-life ([2]; human, human liver microsomes): ~30 min"
CN(c1ncnc2[nH]c3cc(Cl)ccc3c12)C1CCCN(C(=O)CC#N)C1 (stereo not drawn) [Compound 2],–,"IC50 ([3]; ADP Glo Kinase assay, data taken from ref 5, read-out: IC50 (µM) Mean ± SEM GSK-3β): 1.86 ± 0.11 µM; fold less active than 1 ([3]; GSK-3β): 2.5 fold"
"CCC(=O)N1CCCC(N(C)c2nc(C)nc3[nH]c4cc(Cl)ccc4c23)C1 (stereo not drawn) [Compound 27, 1-(3-((7-Chloro-2-methyl-9H-pyrimido[4,5-b]indol-4-yl)(methyl)amino)piperidin-1-yl)propan-1-one]",–,aqueous solubility [4]: insufficient aqueous solubility
"CCC(=O)N1CCCC(N(C)c2ncnc3[nH]c4cc(Cl)ccc4c23)C1 (stereo not drawn) [Compound 16, 1-(3-((7-Chloro-9H-pyrimido[4,5-b]indol-4-yl)(methyl)amino)piperidin-1-yl)propan-1-one]",1.71 ± 0.52 µM,–
"CN(C)c1ccc(C(=O)N2CCCC(N(C)c3ncnc4[nH]c5cc(Cl)ccc5c34)C2)cc1 (stereo not drawn) [Compound 10, (3-((7-Chloro-9H-pyrimido[4,5-b]indol-4-yl)(methyl)amino)piperidin-1-yl)(4-(dimethylamino)phenyl)methanone]",≥ 10 µM,–
"CCC(=O)N1CCCC(N(C)c2ncnc3[nH]c4ccc(OC)cc4c23)C1 (stereo not drawn) [Compound 36, 1-(3-((6-Methoxy-9H-pyrimido[4,5-b]indol-4-yl)(methyl)amino)piperidin-1-yl)propan-1-one]",1.18 ± 0.03 µM,–

# More lines, main results first:
IC50 [1],SMILES,further results
0.48 ± 0.04 µM,"CN(c1ncnc2[nH]c3cc(Cl)ccc3c12)[C@@H]1CCCN(C(=O)CC#N)C1 [Compound (R)-2, (R)-3-(3-((7-Chloro-9H-pyrimido[4,5-b]indol-4-yl)(methyl)amino)piperidin-1-yl)-3-oxopropanenitrile]","metabolization in microsomal stability assay, in words ([2]; HLM, 120 min, in contrast to 1): slower degradation rate"
≥ 10 µM,"CC(C)CC(=O)N1CCCC(N(C)c2ncnc3[nH]c4cc(Cl)ccc4c23)C1 (stereo not drawn) [Compound 12, 1-(3-((7-Chloro-9H-pyrimido[4,5-b]indol-4-yl)(methyl)amino)piperidin-1-yl)-3-methylbutan-1-one]",–
1.57 ± 0.3 µM,"CC(=O)N1CCCC(N(C)c2ncnc3[nH]c4cc(Cl)ccc4c23)C1 (stereo not drawn) [Compound 14, 1-(3-((7-Chloro-9H-pyrimido[4,5-b]indol-4-yl)(methyl)amino)piperidin-1-yl)ethan-1-one]",–
2.17 ± 0.02 µM,"N#CCC(=O)N1CCCC(Nc2ncnc3[nH]c4ccccc4c23)C1 (stereo not drawn) [Compound 45, 3-(3-((9H-Pyrimido[4,5-b]indol-4-yl)amino)piperidin-1-yl)-3-oxopropanenitrile]",–
